Assay results reported in ChEMBL document CHEMBL1137997, “Synthesis and activity of 1-aryl-1'-imidazolyl methyl ethers as non-thiol farnesyltransferase inhibitors” (Bioorg Med Chem Lett, 2004).

How the values were obtained:
[1] = target: Geranylgeranyl transferase type I (Bos taurus, UniProt P29702+Q5EAD5); assay: Inhibition of bovine Geranylgeranyltransferase; format: protein-complex assay
[2] = target: Protein farnesyltransferase (Bos taurus, UniProt P29702+P49355); assay: Inhibition of bovine farnesyltransferase; format: protein-complex assay
[3] = target: T1, Protein farnesyltransferase (Mus musculus) (UniProt Q61239+Q8K2I1); assay: Percent inhibition of H-Ras transformed NIH-3T3-cell proliferation at 100 nM; format: functional, cell-based; details: NIH3T3
[4] = target: Protein farnesyltransferase (Mus musculus, UniProt Q61239+Q8K2I1); assay: (§1) Inhibition of H-Ras transformed NIH-3T3-cell proliferation; format: functional, cell-based; details: nih3t3
[5] = target: T1, Protein farnesyltransferase (Mus musculus); assay: as §1; format: functional; details: concentration not given here

SMILES	IC50 [1] [nM]	IC50 [2] [nM]	inhibition [3] [%]	EC50 [4] [nM]	inhibition [5] [%]
N#Cc1ccc(COCc2cncn2Cc2ccc(C#N)nc2)c(-c2ccc3c(c2)OCO3)c1	> 10000	3			
CCOc1ccc(-c2cc(C#N)ccc2COCc2cncn2Cc2ccc(C#N)cc2)cc1	2300	1.2	52		
COc1cccc(-c2cc(C#N)ccc2COCc2cncn2Cc2ccc(Cl)cc2)c1	> 10000	2.2	0		
CC1=C(Br)C=C(C#N)C(=O)C1Cn1cncc1COCc1ccc(C#N)cc1-c1ccc2c(c1)OCO2 (stereo unspecified)		> 1000			
N#Cc1ccc(Cn2cncc2COc2ccc(Cl)cc2-c2cccc(Cl)c2)cc1	1800	4	0		
COc1ccc(-c2cc(C#N)ccc2COCc2cncn2Cc2ccc(C#N)cc2)cn1	> 10000	7.6	25		
N#Cc1ccc(Cn2cncc2COCc2ccc(C#N)cc2-c2ccc(C(F)(F)F)cc2)cc1	8600	4.3			
CCOc1cccc(-c2cc(C#N)ccc2COCc2cncn2Cc2ccc(C#N)nc2)c1	> 10000	0.58			
N#Cc1ccc(OCc2cncn2Cc2ccc(C#N)c(-c3cccc4ccccc34)c2)cc1	565	0.32	49		
CC(=O)c1ccc(-c2cc(C#N)ccc2COCc2cncn2Cc2ccc(C#N)cc2)cc1	> 10000	1.3			
N#Cc1ccc(Cn2cncc2COCc2ccc(C#N)cc2-c2ccc(OC(F)(F)F)cc2)cc1	1300	0.65		52	
N#Cc1ccc(COCc2cncn2Cc2ccc(C#N)cc2-c2cccc3ccccc23)cc1	2100	0.96			
N#Cc1ccc(Cn2cncc2COCc2ccc(Cl)cc2-c2cccc(Cl)c2)cc1	8200	0.62			30
N#Cc1ccc(Cn2cncc2COCc2ccc(C#N)cc2-c2ccc3ccccc3c2)cc1	3400	0.92	53		
N#Cc1ccc(COCc2cncn2Cc2ccc(C#N)cc2-c2cccc3ccccc23)c(-c2ccc3c(c2)OCO3)c1	1400	6.8	0		
N#Cc1ccc(Cn2cncc2COCc2ccc(C#N)cc2-c2cccc(Cl)c2)cc1	6800	0.37		7.7	
CCOc1cccc(-c2cc(C#N)ccc2COCc2cncn2Cc2ccc(Cl)cc2)c1	> 10000	1.4			
N#Cc1ccc(COCc2cncn2Cc2ccc(C#N)nc2)c(-c2cccc(Cl)c2)c1	> 10000	3	43		
N#Cc1ccc(Cn2cncc2CNCc2ccc(C#N)c(-c3cccc4ccccc34)c2)cc1	220	0.65	5		

SMILES	IC50 [1] [nM]	IC50 [2] [nM]	inhibition [3] [%]	EC50 [4] [nM]	inhibition [5] [%]
N#Cc1ccc(COCc2cncn2Cc2ccc(Cl)cc2)c(-c2ccc3c(c2)OCO3)c1	> 10000	8.3	11		
N#Cc1ccc(Cn2cncc2COCc2ccc(C#N)cc2-c2ccc(Cl)c(Cl)c2)cc1	730	0.37	10		
Cc1ccc(-c2cc(C#N)ccc2COCc2cncn2Cc2ccc(C#N)cc2)cc1C	> 10000	0.6	53		
N#Cc1ccc(Cn2cncc2COCc2ccc(C#N)cc2-c2cccc(Cl)c2)nc1	2200	1.7			
N#Cc1ccc(Cn2cncc2COCc2ccc(C#N)cc2-c2ccc3c(c2)OCO3)nc1	5500	4.7			
Cn1cncc1[C@@](N)(c1ccc(Cl)cc1)c1ccc2c(c1)c(-c1cccc(Cl)c1)cc(=O)n2C [TIPIFARNIB]	1100				
CC(C)(C)c1ccc(-c2cc(C#N)ccc2COCc2cncn2Cc2ccc(C#N)cc2)cc1	870	0.44	49		
N#Cc1ccc(Cn2cncc2COCc2ccc(C#N)cc2-c2cccc(OC(F)(F)F)c2)cc1	990	0.49	54		
CC(=O)Nc1cccc(-c2cc(C#N)ccc2COCc2cncn2Cc2ccc(C#N)cc2)c1		13	92		
CS(=O)(=O)c1ccc(Cn2cncc2COCc2ccc(C#N)cc2-c2cccc(Cl)c2)cc1		96			
N#Cc1ccc(COCc2cncn2Cc2ccc(C#N)cc2-c2cccc(Cl)c2)c(-c2cccc(Cl)c2)c1	87	10	0		
N#Cc1ccc(Cn2cncc2COCc2ccc(C#N)cc2-c2cccc3c2OCO3)cc1		0.81	54		
N#Cc1ccc(OCc2cncn2Cc2ccc(C#N)c(-c3cccc4ccccc34)c2)nc1	420	0.9			
COc1cccc(-c2cc(C#N)ccc2COCc2cncn2Cc2ccc(C#N)cn2)c1	> 10000	4.4	49		
COc1cccc(-c2cc(C#N)ccc2COCc2cncn2Cc2ccc(C#N)nc2)c1	> 10000	1.5	35		
N#Cc1ccc(Cn2cncc2COc2ccc(C#N)c(-c3cccc4ccccc34)c2)cc1	240	0.38			
N#Cc1ccc(Cn2cncc2COCc2ccc(C#N)c(-c3cccc4ccccc34)c2)cc1	1300	4.8	5		
N#Cc1ccc(Cn2cncc2COCc2cnc(C#N)cc2-c2cccc(Cl)c2)cc1	810	4.3	26		
N#Cc1ccc(Cn2cncc2COCc2ccc(C#N)cc2-c2cccc3ccccc23)cc1	2300	1.3	43		
